In brackets after ≈: the same amount, converted by molar mass.

Series [1] can be described thus: Anti-settlement assay with barnacle cyprid larvae (settlement inhibition and mortality, 48 h). The format is in vivo, Balanus amphitrite. To be noted: in vivo, other: larvae immersed in seawater containing the compound; Balanus amphitrite cyprid larvae, 48 h incubation; read-out: LC50 (larval mortality). How it is done: (§1) Compounds dissolved in DMSO were sequentially administered to the wells, starting with a concentration of 25 µg/mL and proceeding with serial half-logarithmic dilutions. The volume of the compound in each well was maintained at […], with seawater as the blank control, DMSO as the negative control, and SeaNine 211 serving as the positive control. Utilizing a stereo microscope, a 1 mL micropipette was employed to introduce 995 μL of seawater and between 21 and 25 cyprid larvae into each well of a 24-well plate. Subsequently, the plates were incubated in a darkened, temperature-controlled environment for 48 h. […] This observation facilitated the calculation of mortality and settlement rates of the barnacle cyprids, crucial for assessing the antifouling properties of the compounds. The determination of EC50 values for the inhibition of barnacle larval attachment and LC50 values for larval mortality offered an evaluation of the compounds’ efficacy in deterring barnacle larval adherence and their associated toxicity.

The subject of series [2] is Balanus amphitrite. Described as above. The format is in vivo. To be noted: for EC50: Amphibalanus amphitrite, read-out: EC50 (inhibition of barnacle larval settlement); for LC50/EC50: Balanus amphitrite, ratio >15 indicating low toxicity. As to the method: as §1
Series [3] is described as follows: Zebrafish embryo toxicity assay. To be noted: in vivo, other: embryos immersed in compound solution in wells, 48 h exposure, read-out: LC50 at 48 h post-fertilization. The format is in vivo. As to the method: (§2) The zebrafish embryo toxicity assay was conducted according to the method described by Huang et al., with slight modifications. Test compounds were dissolved in 0.5% DMSO to prepare a concentration series (0.1, 1, 5, 25, 50 μg/mL), which was then dispensed into 24-well plates. Fifteen cleavage-stage embryos were added to each well. The plates were incubated at 28 °C, and embryonic development was evaluated under a stereomicroscope after 48 h of exposure.

Series [4] deals with zebrafish embryos. Nature of the series: Zebrafish embryo toxicity assay. The class given is in vivo. To be noted: for phenotype of zebrafish embryos versus control: 48 h. How it is done: as §2
Series [5] concerns Balanus amphitrite cyprid larvae. Put plainly: Rescue (resuscitation) assay of Balanus amphitrite cyprid larvae. The class given is in vivo. As to conditions: 1 μg/mL for 24 h, rinsed, settlement observed after 48 h.
Setting [6] is: Balanus amphitrite cyprid larvae, 48 h incubation.

By LC50 is commonly meant the concentration that kills 50% of the test population. One may read the EC50 as the concentration needed to bring the measured effect to its halfway point. Regarding `COC(=O)C12OCC34C(CC5C(C)=C(O)C(=O)CC5(C)C3C(O)C1O)OC(=O)C(OC(=O)CCCCBr)C24` (stereo not shown) [Compound 1, 15-O-(5′-Bromovaleryl)-Bruceolide], the LC50 at 48 h in series [1] worked out at 0.842 ± 0.112 µg/mL (≈ 1.4 µM). In addition, in series [2] (setting [6]), the concentration giving a half-maximal response (EC50) worked out at 0.523 ± 0.123 µg/mL (≈ 0.87 µM).
As to `COC(=O)C12OCC34C(CC5C(C)=C(O)C(=O)CC5(C)C3C(O)C1O)OC(=O)C(OC(=O)CCCCCl)C24` (stereo not shown) [Compound 2, 15-O-(5′-Chlorovaleryl)-Bruceolide], in series [1], the 50% lethal concentration (LC50) at 48 h worked out at 1.12 ± 0.144 µg/mL (≈ 2.02 µM). Further, the EC50 in series [2] (setting [6]) was 0.417 ± 0.185 µg/mL (≈ 0.748 µM). For the same compound, the LC50/EC50 in series [2] is given as 2.6978.
In the case of `COC(=O)C12OCC34C(CC5C(C)=C(O)C(=O)CC5(C)C3C(O)C1O)OC(=O)C(OC(=O)CCCCl)C24` (stereo not shown) [Compound 3, 15-O-(4′-Chlorobutanoyl)-Bruceolide], the LC50 at 48 h in series [1] was found to be 6.24 ± 2.62 µg/mL (≈ 11.5 µM). Besides, the EC50 in series [2] (setting [6]) was found to be 0.147 ± 0.0332 µg/mL (≈ 0.272 µM). In series [2], the LC50/EC50 is given as 42.2922. For the same compound, the LC50 at 48 h in series [3] was found to be 15.8 µg/mL (≈ 29 µM). For the same compound, in series [4], the “phenotype of zebrafish embryos versus control” value is listed as “no significant phenotypic differences”. In series [5], the recovery rate entry was “high recovery rates” and the resuscitation rate amounted to 71.11%.
As for `COC(=O)C12OCC34C(CC5C(C)=C(O)C(=O)CC5(C)C3C(O)C1O)OC(=O)C(OC(=O)c1ccc(Cl)cc1)C24` (stereo not shown) [Compound 4], the LC50 at 48 h in series [1] turned out to be 0.741 ± 0.082 µg/mL (≈ 1.28 µM). For the same compound, the EC50 in series [2] (setting [6]) was 0.353 ± 0.101 µg/mL (≈ 0.611 µM). Moreover, in series [2], the LC50/EC50 turned out to be 2.1018.
For `COC(=O)C12OCC34C(CC5C(C)=C(O)C(=O)CC5(C)C3C(O)C1O)OC(=O)C(OC(=O)c1ccc(Cl)s1)C24` (stereo not shown) [Compound 5], in that order: 6.14 ± 0.173 µg/mL (≈ 10.5 µM), 2.02 ± 0.237 µg/mL (≈ 3.47 µM) and 3.0330.
Regarding `COC(=O)C12OCC34C(CC5C(C)=C(O)C(=O)CC5(C)C3C(O)C1O)OC(=O)C(OC(=O)c1ccc(Cl)nc1)C24` (stereo not shown) [Compound 6], the values for the LC50 at 48 h in series [1] and in series [3] were 5.77 ± 2.54 µg/mL (≈ 9.98 µM) and 8.18 µg/mL (≈ 14.2 µM), respectively. For the same compound, the EC50 in series [2] (setting [6]) was 0.34 ± 0.104 µg/mL (≈ 0.589 µM). In addition, in series [2], the LC50/EC50 was determined as 16.9633. Also, the “phenotype of zebrafish embryos versus control” value in series [4] is on record as “no significant phenotypic differences”. The recovery rate result in series [5] is “high recovery rates”.
For the compound `COC(=O)C12OCC34C(CC5C(C)=C(O)C(=O)CC5(C)C3C(O)C1O)OC(=O)C(OC(=O)Cc1cccc(F)c1)C24` (stereo not shown) [Compound 8, 15-O-(5′-Fluorophenylacetyl)-Bruceolide], the LC50 at 48 h in series [1] was determined as 5.91 ± 1.03 µg/mL (≈ 10.3 µM). Further, the 50% effective concentration (EC50) in series [2] (setting [6]) came out at 1.12 ± 0.103 µg/mL (≈ 1.95 µM). Further, in series [2], the LC50/EC50 was 5.2723.
With `COC(=O)C12OCC34C(CC5C(C)=C(O)C(=O)CC5(C)C3C(O)C1O)OC(=O)C(OC(=O)CCC#N)C24` (stereo not shown) [Compound 12, 15-O-(3′-Cyanopropanoyl)-Bruceolide], the LC50 at 48 h in series [1] was 2.8 ± 0.122 µg/mL (≈ 5.39 µM). Also, the EC50 in series [2] (setting [6]) stood at 1.39 ± 0.135 µg/mL (≈ 2.67 µM). Also, in series [2], the LC50/EC50 came out at 2.0219.
`COC(=O)C12OCC34C(CC5C(C)=C(O)C(=O)CC5(C)C3C(O)C1O)OC(=O)C(OC(=O)Cc1cccc(C#N)c1)C24` (stereo not shown) [Compound 13, 15-O-(5′-Cyano-Phenyl-3′-Acetyl)-Bruceolide]: in series [1], the LC50 at 48 h was found to be 6.61 ± 0.112 µg/mL (≈ 11.4 µM). Also, in series [2] (setting [6]), the EC50 came to 1.84 ± 0.179 µg/mL (≈ 3.17 µM). Moreover, in series [2], the LC50/EC50 was determined as 3.5854.
As to `COC(=O)C12OCC34C(CC5C(C)=C(O)C(=O)CC5(C)C3C(O)C1O)OC(=O)C(OC(=O)c1ccc(C(C)=O)s1)C24` (stereo not shown) [Compound 14, 15-O-(3′-Acetyl-Thiophen-6′-Carbonyl)-Bruceolide], the LC50 at 48 h in series [1] was determined as 7.92 ± 0.243 µg/mL (≈ 13.4 µM). Besides, the EC50 in series [2] (setting [6]) is 2.15 ± 0.727 µg/mL (≈ 3.63 µM). Besides, the LC50/EC50 in series [2] came to 3.6926.
Take `CCCCCCCCn1sc(Cl)c(Cl)c1=O` [SeaNine 211, reference compound]: in series [2] (setting [6]), the “EC50 (inhibition of barnacle larval settlement)” value was found to be 1.9363 ± 0.4128 µg/mL and the “LC50 (larval mortality)” value is 33.9306 ± 2.0625 µg/mL (≈ 120 µM). The “LC50 at 48 h post-fertilization” value in series [4] (48 h exposure) was 7.2236 µg/mL (≈ 25.6 µM).
As to brusatol [B1, reference compound], in series [2] (setting [6]), the “EC50 (inhibition of barnacle larval settlement)” value was 2.7826 ± 0.6874 µg/mL.

For the origin of these results see publication PMC11765156 (International Journal of Molecular Sciences, 2025).
